From patent publication US20260242349A1, “N,N'-SULFONIMIDAMIDES AS ANTICANCER, ANTIINFLAMMATORY, ANTIFIBROTIC AND NEUROPROTECTIVE AGENTS” (Atux Iskay LLC, priority 2023, published 2026)

Test system: D425 medulloblastoma cells
Test: Cancer cell viability inhibition (CellTiter-Glo Luminescent Cell Viability Assay)
Format: cell-based
Conditions: 48 hours treatment, CellTiter-Glo luminescence, test range 1-30 uM, read-out: IC50 for D425 cell growth
Procedure: D425 medulloblastoma cells were purchased from SigmaAldrich. D425 meduloblastoma cells were cultured in improved Dulbecco's modified Eagle's medium (DMEM) Richter's modification supplemented with 20% fetal bovine serum and 1% Penicillin-streptomycin. Incubation was performed at 37° C. and 5% CO2.
D425 cells were seeded at 3000-3500 cells/90 ul growth medium per well on 96-well tissue culture plates. Cells were incubated overnight to allow them to recover. Next day cells were treated with tested compounds and incubated for 48 hours.
Cell Proliferation assays in triplicate were performed at each concentration. Compounds test range was 1-30 uM (0, 5, 10, 15, 20, 25, and 30). The compounds were dissolved in DMSO. […]
After treatment, cells were allowed to equilibrate at room temperature for one hour. Cell proliferation was measured by Luminescence quantification using Promega CellTiter-Glo Luminescent Cell Viability Assay. […] Luminescence intensity was measured using the Spectramax i3× plate reader.
The Luminescence intensity data were analyzed using the computer software Graphpad Prism. In the absence of the compound, the luminescence intensity (Lt) in each data set was defined as 100% cell viability. The percent cell in the presence of each compound was calculated according to the following equation: % Cell=L/Lt, were L=the luminescence intensity in the presence of the compound. […]

Compound: N=S(=O)(Nc1ccc(OC(F)(F)F)cc1)N1CCCC(C2c3ccccc3CCc3ccccc32)C1 (stereo not shown) [Example 2]
- IC50: 9.4 µM
